The nature of one data set: in vivo. The following applies: mouse. The procedure:
The samples were collected at 5, 15, 40 min, and 1, 2, 4, 6, 8 and 24 h.
Whole blood was mixed 1:5 with PBS and centrifuged at 1500×g for 3 min at 4 °C, and the plasma was extracted and frozen at –80 °C.
Using this PK model, a time course of free plasma concentrations of both drugs was simulated (Table 1).
Acidified acetonitrile ([…]) was added with the internal standard, followed by centrifugation at 3000 rpm for 10 min. Supernatant ([…]) was then removed to a clean plate and dried under nitrogen. […]
Supplementary Method 8. Pharmacokinetic models parameters used for simulations
AZD156 PK model and PK parameters used for simulations

Another data set deals with SW620 xenograft. The format is in vivo. The following applies: irinotecan 50 mg/kg IP day 1 weekly + vehicle PO, single animals. As to the method: We tested different weekly in vivo dosing schedules, previously evaluated in SW620 spheroids on the chip (Fig. 5a) using matched exposure profiles to those previously observed in mouse plasma.
Male immunocompromised Hsd:Athymic Nude-Foxn1nu mice (Envigo) were used for xenograft tumour implantation. […] Animals were randomised into groups of 9–15 when tumours reached a volume of ~0.30 cm[3] and 4 weekly cycles of treatment commenced.
Tumours were measured twice weekly (length × width) by bilateral Vernier calliper measurements and tumour volume calculated using Mousetrap software. Tumour growth inhibition from start of treatment was assessed by comparison of the mean change in tumour volume for the control and treated groups using the Mousetrap application and represented as TGI.

Setting [1] is: population PK model parameter, mean.

Values joined by “and” are separate entries in the source; they are usually repeats but may differ in a detail not shown here. Equal values may be shown once. Read-outs that look alike come from different tables or passages of the source.

As for `CCc1c2c(nc3ccc(OC(=O)N4CCC(N5CCCCC5)CC4)cc13)-c1cc3c(c(=O)n1C2)COC(=O)[C@]3(O)CC` [Irinotecan], in “in vivo” (female, CB-17 SCID, in vivo), the Km turned out to be 6.12 nM and the “Q/(1-F4)” value was 0.0574 L/h. For the same molecule, in the data set “in vivo” (setting [1]), the “FM*” value amounted to 0.286, the “V2/(1-F4)” value worked out at 0.0161 L, the “V3/(1-F4)” value came out at 5.26 L and the Vmax came to 0.0589 µM/h. The molecule further registered a ka in “in vivo” (setting [1]) of 0.454 h⁻¹. For the same molecule, the Tumour size with SW620 xenograft (day 7 (fig 5b 01)) was 0.6466 cm^3 and 0.9799 cm^3 and 0.6666 cm^3 and 1.05 cm^3 and 0.9864 cm^3 and 1.225 cm^3 and 0.8608 cm^3 and 0.8801 cm^3 and 0.7589 cm^3 and 0.364 cm^3 and 1.22 cm^3 and 1.71 cm^3 and 0.9487 cm^3 and 0.9159 cm^3 and 0.8306 cm^3. Also, the Tumour size in the data set with SW620 xenograft (day 15 (fig 5b 02)) was 1.28 cm^3 and 1.619 cm^3 and 0.8212 cm^3 and 0.6967 cm^3 and 1.922 cm^3 and 1.901 cm^3 and 1.374 cm^3 and 0.7853 cm^3 and 2.931 cm^3. Also, the Tumour size in the data set on SW620 xenograft (day 35 (fig 5b 03)) was 3.4844 cm^3 and 2.894 cm^3 and 2.205 cm^3 and 2.6873 cm^3 and 2.88 cm^3 and 1.604 cm^3 and 1.682 cm^3.

A word on the Km: it is the concentration of substrate that gives half-maximal velocity. A word on the Vmax: it is the rate approached at saturating substrate.

The values are drawn from PMC8385015, “Tumour-on-chip microfluidic platform for assessment of drug pharmacokinetics and treatment response” (Communications Biology, 2021).
